In the NIST ThermoML archive (doi:10.1016/j.jct.2018.05.029):
± gives the expanded uncertainty stated by the source.

Assay: molar heat capacity at saturation pressure

Cc1cc2ccccc2[nH]1 [2-methylindole]
molar heat capacity [J/K/mol]
Conditions | Crystal | Liquid
10 K, Vacuum adiabatic calorimetry | 2.311 ± 0.033 | –
11.27 K, Vacuum adiabatic calorimetry | 3.226 ± 0.042 | –
12.41 K, Vacuum adiabatic calorimetry | 4.157 ± 0.05 | –
13.64 K, Vacuum adiabatic calorimetry | 5.288 ± 0.058 | –
15.08 K, Vacuum adiabatic calorimetry | 6.718 ± 0.067 | –
16.68 K, Vacuum adiabatic calorimetry | 8.364 ± 0.075 | –
18.46 K, Vacuum adiabatic calorimetry | 10.26 ± 0.091 | –
20 K, Vacuum adiabatic calorimetry | 11.87 ± 0.091 | –
20.49 K, Vacuum adiabatic calorimetry | 12.38 ± 0.091 | –
22.77 K, Vacuum adiabatic calorimetry | 14.82 ± 0.091 | –
25.3 K, Vacuum adiabatic calorimetry | 17.44 ± 0.091 | –
27.77 K, Vacuum adiabatic calorimetry | 19.95 ± 0.083 | –
30 K, Vacuum adiabatic calorimetry | 22.09 ± 0.075 | –
30.59 K, Vacuum adiabatic calorimetry | 22.64 ± 0.075 | –
34.09 K, Vacuum adiabatic calorimetry | 25.92 ± 0.083 | –
37.85 K, Vacuum adiabatic calorimetry | 29.24 ± 0.091 | –
40 K, Vacuum adiabatic calorimetry | 31.03 ± 0.1 | –
41.97 K, Vacuum adiabatic calorimetry | 32.62 ± 0.1 | –
46.6 K, Vacuum adiabatic calorimetry | 36.27 ± 0.11 | –
50 K, Vacuum adiabatic calorimetry | 38.75 ± 0.12 | –
51.65 K, Vacuum adiabatic calorimetry | 39.93 ± 0.12 | –
53.69 K, Vacuum adiabatic calorimetry | 41.38 ± 0.12 | –
57.12 K, Vacuum adiabatic calorimetry | 43.67 ± 0.12 | –
59.07 K, Vacuum adiabatic calorimetry | 45 ± 0.13 | –
60 K, Vacuum adiabatic calorimetry | 45.61 ± 0.13 | –
64.85 K, Vacuum adiabatic calorimetry | 48.69 ± 0.14 | –
70 K, Vacuum adiabatic calorimetry | 51.82 ± 0.14 | –
71.32 K, Vacuum adiabatic calorimetry | 52.61 ± 0.15 | –
78.49 K, Vacuum adiabatic calorimetry | 56.75 ± 0.16 | –
80 K, Vacuum adiabatic calorimetry | 57.59 ± 0.16 | –
86.43 K, Vacuum adiabatic calorimetry | 61.12 ± 0.17 | –
90 K, Vacuum adiabatic calorimetry | 63.03 ± 0.22 | –
95.28 K, Vacuum adiabatic calorimetry | 65.82 ± 0.23 | –
100 K, Vacuum adiabatic calorimetry | 68.27 ± 0.23 | –
104.89 K, Vacuum adiabatic calorimetry | 70.77 ± 0.24 | –
114.73 K, Vacuum adiabatic calorimetry | 75.78 ± 0.25 | –
120 K, Vacuum adiabatic calorimetry | 78.44 ± 0.25 | –
124.69 K, Vacuum adiabatic calorimetry | 80.8 ± 0.26 | –
134.71 K, Vacuum adiabatic calorimetry | 85.9 ± 0.27 | –
140 K, Vacuum adiabatic calorimetry | 88.58 ± 0.27 | –
144.77 K, Vacuum adiabatic calorimetry | 91.01 ± 0.27 | –
154.9 K, Vacuum adiabatic calorimetry | 96.19 ± 0.28 | –
160 K, Vacuum adiabatic calorimetry | 98.83 ± 0.29 | –
165.05 K, Vacuum adiabatic calorimetry | 101.46 ± 0.29 | –
175.19 K, Vacuum adiabatic calorimetry | 106.71 ± 0.31 | –
180 K, Vacuum adiabatic calorimetry | 109.23 ± 0.31 | –
185.36 K, Vacuum adiabatic calorimetry | 112.05 ± 0.32 | –
195.56 K, Vacuum adiabatic calorimetry | 117.49 ± 0.32 | –
200 K, Vacuum adiabatic calorimetry | 119.87 ± 0.33 | –
205.76 K, Vacuum adiabatic calorimetry | 122.96 ± 0.33 | –
215.96 K, Vacuum adiabatic calorimetry | 128.49 ± 0.35 | –
220 K, Vacuum adiabatic calorimetry | 130.72 ± 0.35 | –
226.14 K, Vacuum adiabatic calorimetry | 134.11 ± 0.36 | –
236.28 K, Vacuum adiabatic calorimetry | 139.71 ± 0.37 | –
240 K, Vacuum adiabatic calorimetry | 141.78 ± 0.37 | –
246.38 K, Vacuum adiabatic calorimetry | 145.35 ± 0.38 | –
256.59 K, Vacuum adiabatic calorimetry | 151.16 ± 0.39 | –
260 K, Vacuum adiabatic calorimetry | 153.09 ± 0.4 | –
266.92 K, Vacuum adiabatic calorimetry | 157.02 ± 0.4 | –
276.47 K, Vacuum adiabatic calorimetry | 162.53 ± 0.42 | –
277.41 K, Vacuum adiabatic calorimetry | 163.05 ± 0.42 | –
280 K, Vacuum adiabatic calorimetry | 164.7 ± 0.42 | –
287.09 K, Vacuum adiabatic calorimetry | 169.07 ± 0.42 | –
288.08 K, Vacuum adiabatic calorimetry | 169.56 ± 0.42 | –
297.66 K, Vacuum adiabatic calorimetry | 175.26 ± 0.44 | –
298.15 K, Vacuum adiabatic calorimetry | 175.55 ± 0.44 | 224.57 ± 0.54
298.88 K, Vacuum adiabatic calorimetry | 176.09 ± 0.44 | –
300 K, Vacuum adiabatic calorimetry | 176.66 ± 0.44 | 225.41 ± 0.54
302.77 K, Vacuum adiabatic calorimetry | 178.44 ± 0.45 | –
304.06 K, Vacuum adiabatic calorimetry | 179.13 ± 0.45 | –
308.05 K, Vacuum adiabatic calorimetry | 181.6 ± 0.45 | –
309.63 K, Vacuum adiabatic calorimetry | 182.65 ± 0.46 | –
311.79 K, Vacuum adiabatic calorimetry | 184.11 ± 0.46 | –
312.14 K, Vacuum adiabatic calorimetry | 184.35 ± 0.46 | –
320 K, Vacuum adiabatic calorimetry | 189.37 ± 0.47 | 234.36 ± 0.56
320.34 K, Vacuum adiabatic calorimetry | 189.58 ± 0.47 | –
331.97 K, Vacuum adiabatic calorimetry | 197.27 ± 0.48 | 239.7 ± 0.57
337.63 K, Vacuum adiabatic calorimetry | – | 242.18 ± 0.57
338.88 K, Vacuum adiabatic calorimetry | – | 242.77 ± 0.57
340 K, Vacuum adiabatic calorimetry | – | 243.31 ± 0.58
341.57 K, Vacuum adiabatic calorimetry | – | 244.01 ± 0.58
349.89 K, Vacuum adiabatic calorimetry | – | 247.67 ± 0.59
350.31 K, Vacuum adiabatic calorimetry | – | 247.9 ± 0.59
360 K, Vacuum adiabatic calorimetry | – | 252.22 ± 0.6
362.02 K, Vacuum adiabatic calorimetry | – | 253.13 ± 0.6
374.86 K, Vacuum adiabatic calorimetry | – | 258.66 ± 0.61
380 K, Vacuum adiabatic calorimetry | – | 260.9 ± 0.62
387.5 K, Vacuum adiabatic calorimetry | – | 264.11 ± 0.62
399.88 K, Vacuum adiabatic calorimetry | – | 269.16 ± 0.63
400 K, Vacuum adiabatic calorimetry | – | 269.22 ± 0.63
412.6 K, Vacuum adiabatic calorimetry | – | 274.35 ± 0.64
420 K, Vacuum adiabatic calorimetry | – | 277.24 ± 0.65
425.58 K, Vacuum adiabatic calorimetry | – | 279.37 ± 0.66
436.98 K, Vacuum adiabatic calorimetry | – | 283.72 ± 0.67
440 K, Vacuum adiabatic calorimetry | – | 284.91 ± 0.67
460 K, Small sample (50 mg) DSC | – | 292.55 ± 4.5
480 K, Small sample (50 mg) DSC | – | 299.89 ± 4.6
500 K, Small sample (50 mg) DSC | – | 307.02 ± 4.8
520 K, Small sample (50 mg) DSC | – | 313.94 ± 5
540 K, Small sample (50 mg) DSC | – | 320.66 ± 5.2
560 K, Small sample (50 mg) DSC | – | 327.16 ± 5.7
580 K, Small sample (50 mg) DSC | – | 333.46 ± 6
600 K, Small sample (50 mg) DSC | – | 339.55 ± 6.5
620 K, Small sample (50 mg) DSC | – | 345.45 ± 6.9
640 K, Small sample (50 mg) DSC | – | 351.22 ± 7.5
660 K, Small sample (50 mg) DSC | – | 356.94 ± 7.9
680 K, Small sample (50 mg) DSC | – | 362.78 ± 8.6
700 K, Small sample (50 mg) DSC | – | 369.01 ± 9
